Source: patent publication US11358931B2, “Selective androgen receptor modulators (SARMs) and uses thereof” (priority 2007, dated 2022)

Legend:
hGR = target: T1, hGR (Homo sapiens, UniProt P04150); test: Co-transfection assay, other nuclear receptors: hGR; format: cell-based
T1 construct: expressed in transfected cells
T1 sequence (P04150 1-777): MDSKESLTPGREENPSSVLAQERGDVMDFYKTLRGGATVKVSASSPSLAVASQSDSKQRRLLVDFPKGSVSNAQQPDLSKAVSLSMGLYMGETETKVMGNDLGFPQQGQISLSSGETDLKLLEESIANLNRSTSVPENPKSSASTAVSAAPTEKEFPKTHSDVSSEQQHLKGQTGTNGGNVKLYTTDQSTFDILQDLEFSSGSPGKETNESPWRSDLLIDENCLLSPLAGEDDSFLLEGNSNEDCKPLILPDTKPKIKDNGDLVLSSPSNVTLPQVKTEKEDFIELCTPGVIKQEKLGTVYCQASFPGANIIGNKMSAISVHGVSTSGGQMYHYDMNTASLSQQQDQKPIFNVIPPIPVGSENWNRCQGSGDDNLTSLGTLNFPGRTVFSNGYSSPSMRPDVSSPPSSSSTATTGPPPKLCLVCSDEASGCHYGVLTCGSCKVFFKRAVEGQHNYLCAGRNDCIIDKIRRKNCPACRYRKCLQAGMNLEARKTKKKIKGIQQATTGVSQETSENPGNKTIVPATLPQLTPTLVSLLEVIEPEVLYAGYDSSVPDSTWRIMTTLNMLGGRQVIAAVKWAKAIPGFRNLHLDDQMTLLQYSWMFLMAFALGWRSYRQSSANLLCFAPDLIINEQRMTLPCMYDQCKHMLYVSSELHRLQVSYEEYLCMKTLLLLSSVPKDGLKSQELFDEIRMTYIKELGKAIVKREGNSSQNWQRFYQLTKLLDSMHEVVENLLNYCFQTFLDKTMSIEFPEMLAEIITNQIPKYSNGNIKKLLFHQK
Description: An exemplary co-transfection assay is the luciferase reporter assay (Evans, Science 240: 889-895 (1988), Berger et al., J Steroid Biochem Mol Biol 41: 733-738 (1992)) can be used to establish the ability of a compound of formulae I, II or III to activate (agonist activity) or repress (antagonist activity) the ability of the human androgen receptor (hAR) to induce gene expression. A human cell line containing endogenously expressed hAR (e.g., MDA-MB-453 cells, derived from a human mammary carcinoma, American Tissue Type Culture Collection [ATCC] HTB 131) can be transfected with an androgen responsive luciferase reporter plasmid to measure the level of cross-reactivity of the compound on other nuclear receptors (such as the glucocorticoid receptor (GR), estrogen receptor (ER), mineralocorticoid receptor (MR), progesterone receptor (PR), retinoid receptor (RAR), retinoid X receptor (RXR), peroxisome proliferator activating receptors alpha (PPARα), gamma (PPARγ) and delta (PPARδ), liver X receptor (LXR), farnesyl X receptor (FXR) and the pregnane X receptor (PXR)). In the assay, luciferase reporter plasmids containing the cDNA for firefly luciferase (LUC) under the control of a conditional promoter containing hormone response elements recognized by the appropriate nuclear receptor are co-transfected into cells with the nuclear receptor expression plasmid. […]

[1] = Toxicokinetics in cynomolgus monkeys (14-day oral study); format: in vivo, cynomolgus monkey
Experimental: A study was performed to determine any potential toxicity and the toxicokinetic profile of Compound 102 when administered orally (via nasal gavage) to cynomolgus monkeys for at least 14 days. The cynomolgus monkey was chosen for this study as it is a non-rodent species that is commonly used for non-clinical toxicity evaluations. Use of the monkey model maximized the likelihood of identifying toxicological responses that may occur in humans. Ten experimentally naïve cynomolgus monkeys (5 male and 5 female) from about 2.5 to 3 years of age and weighing between about 2.3 to about 2.8 kg at Day −1 of the study were assigned to dose groups as shown in Table 6 below.
All animals were dosed via nasal gavage once daily for 14 consecutive days. The first day of dosing was designated Day 1 for all animals. The animals were evaluated for clinical signs (evaluation of mortality and morbidity, twice daily), cage side observations and food consumption (once daily), body weight (Days 1, 8 and 14), physical examination (Day −5 and post dosing following the 13/24 hour toxicokinetic collection on Day 14), ophthalmic examination (prestudy and owing the Day 13/24 hour toxicokinetic collection on Day 14), and clinical pathology parameters (serum chemistry, hematology and coagulation on Days −3 and 14), urine samples were collected during necropsy (Day 15) for urinalysis. Blood samples were collected for toxicokinetic analysis at 1, 2, 4, 8, 12 and 24 hours post dose on Days 1 and 13.

In the case of `N#Cc1ccc(N2CCC[C@@H]2[C@@H](O)C(F)(F)F)cc1C(F)(F)F` [Compound 102, R,R-4-(2-(1-Hydroxyl-2,2,2-trifluoroethyl)-pyrrolidinyl)-2-trifluoromethyl-benzonitrile], the IC50 (hGR) is reported as 1.6 µM, the “antagonism of dexamethasone-induced activation of hGR (efficacy)” value (hGR; dexamethasone-induced activation) is reported as 60% and the “sex difference in toxicokinetic parameters” value ([1]; Day 1 and Day 13) is reported as “no noticeable sex difference”. For the same compound, the “effect of repeat administration on systemic exposure” value ([1]; Day 13 relative to Day 1) was “decreased on Day 13” and the “systemic exposure versus dose” value ([1]; both sexes) was “increased with increasing dose up to 450 mg/kg”.
